From ChEMBL document CHEMBL1671662, “In vitro activities of telavancin and six comparator agents against anaerobic bacterial isolates” (2009)

Legend:
Format in all cases: functional
[1] = system: Prevotella melaninogenica; experiment: Antibacterial activity against Prevotella melaninogenica by CLSI M11-A6 agar dilution method in presence of beta-lactamase inhibitor Sulbactam
[2] = system: Clostridium beijerinckii; experiment: Antibacterial activity against Clostridium beijerinckii by CLSI M11-A6 agar dilution method in presence of beta-lactamase inhibitor Sulbactam
[3] = system: Clostridium butyricum; experiment: Antibacterial activity against Clostridium butyricum by CLSI M11-A6 agar dilution method in presence of beta-lactamase inhibitor Sulbactam
[4] = system: Ruminococcus torques; experiment: Antibacterial activity against Ruminococcus torques by CLSI M11-A6 agar dilution method in presence of beta-lactamase inhibitor Sulbactam; settings: Mediterraneibacter torques
[5] = system: Anaerococcus tetradius; experiment: Antibacterial activity against Anaerococcus tetradius by CLSI M11-A6 agar dilution method in presence of beta-lactamase inhibitor Sulbactam
[6] = system: Fusobacterium mortiferum; experiment: Antibacterial activity against Fusobacterium mortiferum by CLSI M11-A6 agar dilution method in presence of beta-lactamase inhibitor Sulbactam

With `CC1(C)S[C@@H]2[C@H](NC(=O)[C@H](N)c3ccccc3)C(=O)N2[C@H]1C(=O)O` [AMPICILLIN] as the molecule, how does the MIC50 [1] read?
Its MIC50 is no more than 0.12 µg/mL.

And the MIC90 [1]?
The MIC90 was 2 µg/mL.

And the MIC50 [2]?
Its MIC50 is 0.25 µg/mL.

What about the MIC90 [2] of the same molecule?
Its MIC90 is 1 µg/mL.

And the MIC50 [3]?
Its MIC50 is 0.25 µg/mL.

And the MIC90 [3]?
Its MIC90 is 1 µg/mL.

What about the MIC50 [4] of the same molecule?
The MIC50 was no more than 0.12 µg/mL.

What about the MIC90 [4] of the same molecule?
Its MIC90 is 1 µg/mL.

What about the MIC50 [5] of the same molecule?
Its MIC50 is 0.25 µg/mL.

What about the MIC90 [5] of the same molecule?
Its MIC90 is 0.5 µg/mL.

And the MIC50 [6]?
The MIC50 was 2 µg/mL.

What about the MIC90 [6] of the same molecule?
Its MIC90 is 16 µg/mL.
